Consider one substance from US11857601B2, “Pharmaceutical composition for cancer treatment comprising fusion protein including IL-2 protein and CD80 protein and anticancer drug” (GI INNOVATION, INC., priority 2020, dated 2024).

The test system of one assay is human PBMCs. Kind of assay: IFN-γ production in PHA-treated CFSE-labeled PBMCs (ELISA). As to conditions: PBMCs + PHA 5 μg/ml; 1, 10 or 100 nM; 6 days; compared with GI101C1, GI101C2 or IL-2. The format is cell-based. Here is the method:
Peripheral blood mononuclear cells (PBMCs) isolated from a human were labeled with carboxyfluorescein succinimidyl ester (CFSE) by being reacted with 1 μM CellTrace CFSE dye at 37° C. for 20 minutes. CFSE not bound to the cells was removed by being reacted for 5 minutes with a culture medium having a 5-fold volume of the staining reaction solution and then by being centrifuged at 1,300 rpm for 5 minutes. […]
The cells were analyzed by FACS, and human IFN-γ present in the culture medium was measured using an ELISA kit (Biolegend, San Diego, CA, USA, cat No. 430103).
The amount of human IFN-γ secreted into the supernatant of each sample in which the cells had been cultured was measured using a human IFN-γ ELISA kit (Biolegend, cat No. 430103). […]
After the reaction was completed, the plate was washed and secondary antibodies (detection antibodies) were added thereto. […] Finally, […] was added thereto to stop the color development reaction, and the absorbance at 450 nm was measured with Epoch Microplate Spectrophotometer (BioTek instruments, Winooski, VT, USA), and the concentration was calculated.

In another assay the target is T1, IL-2Rα (Homo sapiens, UniProt P01589).
T1 construct: purchased Acro ILA-H52H9
T1 sequence (P01589 22-272): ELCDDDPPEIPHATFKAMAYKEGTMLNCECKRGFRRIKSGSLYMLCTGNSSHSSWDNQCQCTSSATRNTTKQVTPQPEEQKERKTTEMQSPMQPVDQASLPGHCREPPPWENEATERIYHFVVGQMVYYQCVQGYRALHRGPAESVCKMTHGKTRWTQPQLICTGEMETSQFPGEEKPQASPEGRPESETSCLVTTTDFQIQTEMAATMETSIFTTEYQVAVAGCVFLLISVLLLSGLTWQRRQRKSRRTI
The assay can be described thus: Binding to IL-2Rα (Octet, AR2G biosensor). As to conditions: as compared with GI101w and Proleukin. Here is the method: The binding ability for IL-2Rα was measured using the AR2G biosensor, and the binding ability for IL-2Rβ was measured using the Ni-NTA biosensors (Nickel charged Tris-NTA, Ni-NTA Biosensors, ForteBio, 18-5101).
A ligand (IL-2Rα-His Tag, Acro, Cat: ILA-H52H9) to be attached to the AR2G biosensor was diluted with 10 mM acetate buffer (pH 5, AR2G reagent Kit, ForteBio, Cat: 18-5095) to a concentration of 5 μg/ml. The AR2G biosensor was activated with a buffer prepared by mixing 400 mM EDC and 100 mM sulfo-NHS, and then the diluted ligand was loaded on the AR2G biosensor for 300 seconds and fixed.
Thereafter, GI101, GI101w, or Proleukin (Novartis, hIL-2), at various concentrations, to be attached to the ligand was loaded thereon for 300 seconds. Then, binding thereof was measured and dissociation thereof was also measured for 300 seconds. Binding kinetics analysis was performed using Octet Data Analysis HT software ver. 10 provided by Pall Corporation. The results are illustrated in FIGS. 22 to 24.

For “GI101: fusion protein: human CD80 fragment, Ig hinge, Fc domain, linker, IL-2 variant (2M) (R38A, F42A); SEQ ID NO: 9”, in the assay with human PBMCs, the IFN-γ secretion entry is “remarkable increase”. In addition, the “binding ability for the IL-2 receptor IL-2Rα” value with IL-2Rα is “low binding ability”.
